Assay results published in PubChem BioAssay (NCI).
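Each compound was tested at five concentrations against cells in 96-well plates for 48 hours. Definition used: TGI = concentration required for complete inhibition of growth.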

Tests used:
Test in all cases: DTP human tumour cell line panel, 48 h
A549 NSCLC = test system: A549 NSCLC
COLO 205 colon = test system: COLO 205 colon
DU-145 prostate = test system: DU-145 prostate
MOLT-4 leukemia = test system: MOLT-4 leukemia
NCI-H23 lung = test system: NCI-H23 lung
OVCAR-3 ovarian = test system: OVCAR-3 ovarian
RXF 393 renal = test system: RXF 393 renal
SNB-75 CNS = test system: SNB-75 CNS
SW-620 colon = test system: SW-620 colon
UACC-62 melanoma = test system: UACC-62 melanoma
BT-549 breast = test system: BT-549 breast

| Structure (SMILES) | TGI (A549 NSCLC) [µM] | TGI (COLO 205 colon) [µM] | TGI (DU-145 prostate) [µM] | TGI (MOLT-4 leukemia) [µM] | TGI (NCI-H23 lung) [µM] | TGI (OVCAR-3 ovarian) [µM] | TGI (RXF 393 renal) [µM] | TGI (SNB-75 CNS) [µM] | TGI (SW-620 colon) [µM] | TGI (UACC-62 melanoma) [µM] | TGI (BT-549 breast) [µM] |
| --- | --- | --- | --- | --- | --- | --- | --- | --- | --- | --- | --- |
| [O-][N+]1=C(c2ccccc2)/C(=C2/C(c3ccccc3)=[N+]([O-])c3ccccc32)Cc2ccccc21 | 35.2 | 34.7 | 63.8 | 54.3 | 34.7 | 38.1 | 53.1 | 47.1 | 59.2 | 28.7 | – |
| O=C(Nc1ccccc1)c1cc2cc(CCl)ccc2oc1=O | > 100 | > 100 | > 100 | > 100 | > 100 | > 100 | > 100 | > 100 | > 100 | 32.8 | > 100 |
| COc1cccc2c1C(=O)c1c(O)c3c(c(O)c1C2=O)CC(O)(C(C)=O)CC3OC1OC(COC(C)=O)C(OC(C)=O)C(OC(C)=O)C1OC(C)=O (stereo unspecified) | > 100 | > 100 | > 100 | 36.9 | – | 31.2 | 7.25 | 27 | > 100 | > 100 | – |
| Clc1ccc2c(c1)CC1C[N+]3=C(CCCCC3)C1=C2 (stereo unspecified) | > 100 | > 100 | > 100 | > 100 | > 100 | > 100 | > 100 | 4.56 | > 100 | > 100 | > 100 |
| CC(C)C1CCC(=O)CC1CCCCC1CC(=O)CC1O[Si](C)(C)C(C)(C)C (stereo unspecified) | 32.9 | 21.5 | 39.1 | 5.5 | 33.7 | > 47.5 | 27.8 | 26 | > 26.5 | 17.1 | 13.3 |
| CCOC(=O)NC(C(F)(F)F)(C(F)(F)F)P(=O)(OCC)OCC | – | > 100 | > 100 | 97.9 | > 100 | > 100 | 44.1 | > 100 | > 100 | > 100 | > 100 |
| COc1cc(C2SCC(=O)N2c2ccc(Cl)cc2)cc(OC)c1OC (stereo unspecified) | > 100 | > 56.8 | > 100 | 30.7 | > 100 | > 100 | 71.2 | > 100 | > 100 | – | > 100 |
| CN(C)C1(N(C)C)Oc2c(c(=O)n(C)c(=O)n2C)C(c2ccc(F)cc2)C1(F)F (stereo unspecified) | > 100 | > 100 | > 100 | – | > 100 | > 100 | > 100 | > 100 | > 100 | > 100 | > 100 |
| O=C1/C(=C/c2cccc([N+](=O)[O-])c2)Cc2ccccc21 | > 100 | > 100 | > 100 | > 100 | > 100 | > 100 | – | > 100 | > 100 | > 100 | > 100 |
| COc1ccc2nc3c([N+](=O)[O-])ccc4c3c(c2c1)N=CN4CCN(C)C | 19.2 | 10.1 | 15.8 | 6.73 | 21.1 | 17 | – | 12.1 | > 42.6 | 27.4 | 28.6 |
| Nc1nc(N)c2c(-c3ccccc3)ccnc2n1 | – | > 100 | > 100 | – | > 100 | > 100 | > 100 | – | > 100 | > 100 | > 100 |
| Oc1c(Cl)c(Cl)c(O)c(-c2cnc(-c3ncc(-c4c(O)c(Cl)c(Cl)c(O)c4Cl)s3)s2)c1Cl | > 100 | 97.2 | > 100 | > 100 | 39.9 | 52.4 | 43.8 | 71.7 | > 100 | 46.8 | – |
| CCCCCCC(O)C(=O)OC1C2C(CC1(C)C)C(O)C13OC1C(O)C1(CO1)[C@@]23C (stereo partly specified) | > 100 | > 100 | > 100 | > 100 | > 100 | > 100 | 59.4 | 31.2 | – | > 100 | > 100 |
| CCOC(=O)CN1C(=O)c2c(NC(=O)C(=O)O)cccc2S1(=O)=O | > 100 | > 100 | > 100 | > 100 | > 100 | – | > 100 | – | > 100 | > 100 | > 100 |
| O=C(O)c1ccc(Nc2nc3ccc(C(F)(F)F)cc3nc2-c2ccccc2)cc1 | > 100 | – | > 10 | > 100 | > 100 | 72.6 | > 100 | > 100 | > 100 | 35.8 | – |
| COc1cc2c(cc1OC)-c1cc3cc(OC)c(OC)cc3c(C)[n+]1CC2 (tested in a mixture with another compound) | > 100 | > 100 | > 100 | 48.1 | > 100 | > 100 | > 100 | – | > 100 | 95.5 | > 100 |
| CC(c1ccccc1)n1c2ccccc2c2c(N)ncnc21 (stereo unspecified) | 46.3 | – | 42.8 | 52.7 | 39.5 | 30.6 | 33.5 | 9.19 | 47.4 | – | – |
| CC(=O)c1ccc(Nc2nc3ccccc3c3occc23)cc1 | > 100 | 27.6 | 75 | 11.9 | 46.6 | 71.2 | – | – | – | 41.3 | 64.4 |
| Cc1cc2nc3c(C#N)c4c(c(Cl)n3c2cc1C)CCC4 | – | > 100 | – | > 100 | 62.6 | 49.7 | 32.1 | > 100 | 39.3 | – | 49 |
| CCOC(=O)c1c(Br)c(-c2ccc([N+](=O)[O-])cc2)c(Br)n1C | > 10 | > 10 | > 10 | > 10 | > 10 | > 10 | – | > 10 | – | > 10 | > 10 |
| CC(=O)c1sc2c(c1OC(=O)c1ccccc1)c(=O)n(-c1ccccc1)c(=S)n2-c1ccccc1 | > 100 | 30.1 | 79 | 8.3 | > 71.9 | > 62.5 | 7.21 | 28.6 | > 82.6 | 32.8 | – |
| COC1=C(OC)C(=O)C(C/C=C/c2c(Cl)nc3sccn23)=C(C)C1=O | 33.3 | 31.9 | 40.3 | 8.97 | 7.76 | 29.9 | 37.5 | – | 46 | 29.1 | 28.8 |
